Experimental findings from patent US20250161395A1, “SPINAL CORD REGENERATION THERAPY” (MOLEAC PTE LTD., priority 2022, published 2025) are described below.

The subject of the test is NSC-34 cells. The test is described as follows: NSC-34 cell differentiation into mature motor neurons. The class given is cell-based.

SMILES strings stand for the structures.

Consider `CC1=C(/C=C/C(C)=C/C=C/C(C)=C/C(=O)O)C(C)(C)CCC1` [RA, retinoic acid], for which the “time to NSC-34 cell differentiation” value by setting is: (1 μM RA) 14 days; (10 μM RA) 7 days.
